{
  "source": "patent US11000501B2",
  "about": "“Composition for preventing or treating neurological and mental disorders, containing syringaresinol” (SEOUL NATIONAL UNIVERSITY R&DB FOUNDATION, priority 2016, dated 2021)",
  "test_system": "Schaffer collateral (SC)-CA1 synapse of the hippocampus",
  "assay": "fEPSP recording in hippocampal SC-CA1 synapse (hippocampal slices)",
  "type": "cell-based, mouse",
  "settings": "10 μM, applied after SYR",
  "procedure": "A hippocampus slice (400 μm thick) was prepared in a cold dissection buffer using a vibrating machine (Vibratome, Leica, Germany) and then a CA3 region of each slice was removed surgically immediately after the slice formation. In this connection, the cold dissection buffer contained sucrose 230 mM; NaHCO3 25 mM; KCl 2.5 mM; NaH2PO4 1.25 mM; D-glucose 10 mM; Na-ascorbic acid salt 1.3 mM; MgCl2 3 mM; CaCl2 0.5 mM, 95% O2/5% CO2 and had pH 7.4. The slice was recovered in a normal ACSF (artificial cerebrospinal fluid) for 1 hour and then maintained at room temperature (23 to 25° C.) until recording. […] All electrophysiological experiments were performed in a recording chamber while the samples were immersed in the solution in a manner described previously (Song et al., 2017). Signals were amplified using a MultiClamp 700B amplifier (Molecular Devices, CA, USA) at a cut-off frequency of 2.8 kHz and were measured with a Digidata 1440A interface (Molecular Devices) at a 10 kHz sampling frequency. Data were collected using pClamp 10.2 (Molecular Devices) software. The collected data were analyzed with a program created in the lab using Igor Pro (WaveMetrics, OR, USA). To record the field excitatory post-synaptic potential (fEPSP) in the hippocampal SC-CA1 synapse, hippocampal slices were placed in the recording chamber and perfused with ACSF while oxygen was fed continuously to the ACSF. The ACSF was maintained at a temperature of 29 to 30° C. using a heater for perfusion (SH-27B, Warner Instruments, CT, USA). A synapse response was induced by stimulation with a glass pipette (0.3 to 0.5 Mohm) every 20 seconds (0.05 Hz). The synapse response was recorded using a glass pipette (3 to 4 Mohm) filled with ACSF. The intensity of the stimulus was adjusted to produce a synapse response of about ⅓ of the maximum value thereof. The slices with unstable (10%) baseline records were excluded. To investigate the effect of syringaresinol (SYR) on the synaptic transmission, the field excitatory post-synaptic potential (fEPSP) of the Schaffer collateral (SC)-CA1 synapse of the hippocampus of adult mice (4 to 6 weeks of age) was measured. After confirming the stable baseline, different concentrations of SYR were applied thereto using the perfusion solution.",
  "data": [
    {"smiles": "NS(=O)(=O)c1cccc2c1c([N+](=O)[O-])cc1nc(O)c(O)nc12", "note": "[NBQX, reference compound]", "values": [
      {"measurement": "block of the synaptic response (fEPSP)", "result": "completely blocked"}
    ]}
  ]
}
